Assay results published in publication PMC8405639, “2-Carba-lysophosphatidic acid is a novel β-lysophosphatidic acid analogue with high potential for lysophosphatidic acid receptor activation and autotaxin inhibition” (Scientific Reports, 2021).

Legend:
Assay type in all cases: cell-based
hLPA1 = molecular target: T1, hLPA1 (Homo sapiens, UniProt Q92633); assay: TGFα-shedding assay, LPA1; settings: 293A cells, AP-TGFα release; for EC50: 1 h; for Emax: read-out: Emax ± SEM hLPA1 (converted)
T1 construct: expressed in transfected cells; host or cells: 293A cells
T1 sequence (Q92633 whole entry): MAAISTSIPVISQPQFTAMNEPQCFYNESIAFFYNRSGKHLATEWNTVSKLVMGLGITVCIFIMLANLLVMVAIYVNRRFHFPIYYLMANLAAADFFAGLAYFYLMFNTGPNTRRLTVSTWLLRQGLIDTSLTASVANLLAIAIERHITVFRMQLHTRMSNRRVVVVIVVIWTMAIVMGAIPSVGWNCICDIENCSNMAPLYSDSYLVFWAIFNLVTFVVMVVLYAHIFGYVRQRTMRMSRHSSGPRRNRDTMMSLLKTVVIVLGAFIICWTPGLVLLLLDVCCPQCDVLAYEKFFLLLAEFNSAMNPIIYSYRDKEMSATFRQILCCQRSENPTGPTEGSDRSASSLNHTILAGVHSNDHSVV
Method: (§1) Figure 4 Agonistic activity of 2-carba-lysophosphatidic acid (2carbaLPA) and cyclic phosphatidic acid (cPA) analogues toward six lysophosphatidic acid (LPA) receptors. 293A cells expressing LPA receptors were stimulated with the indicated concentration of LPA, 2carbaLPA, and cPA analogues. Receptor-specific alkaline phosphatase-tagged transforming growth factor-α release was calculated by subtracting the responses in the empty vector-transfected cells from those in the receptor-expressing cells. Data are represented as standard error of the mean of three independent replicates.
(§2) 293A cells (Life Technologies, Tokyo, Japan) were cultured in DMEM (Nissui Pharmaceutical, Tokyo, Japan) supplemented with 10% foetal calf serum (Gibco, Waltham, MA, USA) in an incubator at 37 °C and 5% CO2. This assay was conducted according to a modified version of a method described previously. To improve signal detection, cells for the analysis of LPA1, LPA2, LPA4, and LPA5 were transfected with Gα-chimeric proteins, whereas those for LPA4, LPA5, LPA6 analysis were treated with the LPA1–3 antagonist Ki16425. The cells were co-transfected with vectors-expressing human LPA1–6, alkaline phosphatase-tagged TGFα (AP-TGFα). As negative controls, cells transfected with an empty vector instead of the receptor-expressing vector were used. After 24 h, the cells were resuspended in Hank’s balanced salt solution (HBSS), seeded in 96-well plates, and stimulated with cPA analogues administered at tenfold concentration of the final concentration. The cPA analogues were diluted with HBSS, 0.01% protease and fatty acid-free BSA (SERVA Electrophoresis GmbH, Heidelberg, Germany). Cells for LPA4, LPA5, and LPA6 analysis were treated with Ki16425 (final concentration: 10 μM), 5 min before treatment with the cPA analogues. After incubation for 1 h at 37 °C, 80 µL of the supernatant was transferred to fresh 96-well plates. An equal volume of 1 mM p-NPP solution [120 mM Tris–HCl (pH 9.5), 40 mM NaCl, and 10 mM MgCl2] was added to both the supernatant and the cells. Alkaline phosphatase activity was calculated by measuring absorbance at 405 nm using the Cytation 3 plate reader (BioTek, Winooski, VT, USA).

hLPA2 = molecular target: T2, hLPA2 (Homo sapiens, UniProt Q9HBW0); assay: TGFα-shedding assay, LPA2; settings: 293A cells, AP-TGFα release; for EC50: 1 h; for Emax: read-out: Emax ± SEM hLPA2 (converted)
T2 construct: expressed in transfected cells; host or cells: 293A cells
T2 sequence (Q9HBW0 whole entry): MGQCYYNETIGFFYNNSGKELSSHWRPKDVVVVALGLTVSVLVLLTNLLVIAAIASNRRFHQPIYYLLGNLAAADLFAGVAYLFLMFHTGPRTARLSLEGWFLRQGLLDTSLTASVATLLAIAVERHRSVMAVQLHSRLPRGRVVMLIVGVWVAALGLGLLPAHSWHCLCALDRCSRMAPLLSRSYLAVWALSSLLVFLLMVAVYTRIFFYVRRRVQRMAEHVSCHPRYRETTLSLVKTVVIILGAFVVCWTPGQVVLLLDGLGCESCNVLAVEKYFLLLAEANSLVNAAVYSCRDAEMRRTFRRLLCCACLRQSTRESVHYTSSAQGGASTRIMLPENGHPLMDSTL
Method: as §1, with “293A” for “Figure 4 Agonistic activity of 2-carba-lysophosphatidic acid (2carbaLPA) and cyclic phosphatidic acid (cPA) analogues toward six lysophosphatidic acid (LPA) receptors. 293A”
as §2, with “To improve signal detection, cells for the analysis of LPA1, LPA2, LPA4, and LPA5 were transfected with Gα-chimeric proteins, whereas those for LPA4, LPA5, LPA6 analysis were treated with the LPA1–3 antagonist Ki16425.” left out

hLPA4 = molecular target: T3, hLPA4 (Homo sapiens, UniProt Q99677); assay: TGFα-shedding assay, LPA4; settings: 293A cells, AP-TGFα release; for EC50: 1 h, with Ki16425 10 μM; for Emax: read-out: Emax ± SEM hLPA4 (converted)
T3 construct: expressed in transfected cells; host or cells: 293A cells
T3 sequence (Q99677 whole entry): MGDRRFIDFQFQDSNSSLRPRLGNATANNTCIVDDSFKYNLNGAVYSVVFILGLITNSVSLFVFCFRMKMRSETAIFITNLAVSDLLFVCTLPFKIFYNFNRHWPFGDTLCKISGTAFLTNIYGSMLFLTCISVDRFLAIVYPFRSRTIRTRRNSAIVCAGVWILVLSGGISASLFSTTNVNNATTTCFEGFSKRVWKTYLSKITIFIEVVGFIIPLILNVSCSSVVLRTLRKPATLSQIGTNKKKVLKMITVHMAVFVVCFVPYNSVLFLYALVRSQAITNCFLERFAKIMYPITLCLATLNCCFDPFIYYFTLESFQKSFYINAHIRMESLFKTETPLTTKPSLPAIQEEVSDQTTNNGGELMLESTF
Method: as §1, with “293A” for “Figure 4 Agonistic activity of 2-carba-lysophosphatidic acid (2carbaLPA) and cyclic phosphatidic acid (cPA) analogues toward six lysophosphatidic acid (LPA) receptors. 293A”
as §2, with “To improve signal detection, cells for the analysis of LPA1, LPA2, LPA4, and LPA5 were transfected with Gα-chimeric proteins, whereas those for LPA4, LPA5, LPA6 analysis were treated with the LPA1–3 antagonist Ki16425.” left out

hLPA6 = molecular target: T4, hLPA6 (Homo sapiens, UniProt P43657); assay: TGFα-shedding assay, LPA6; settings: 293A cells, AP-TGFα release; for EC50: 1 h; for Emax: read-out: Emax ± SEM hLPA6 (converted)
T4 construct: expressed in transfected cells; host or cells: 293A cells
T4 sequence (P43657 1-344): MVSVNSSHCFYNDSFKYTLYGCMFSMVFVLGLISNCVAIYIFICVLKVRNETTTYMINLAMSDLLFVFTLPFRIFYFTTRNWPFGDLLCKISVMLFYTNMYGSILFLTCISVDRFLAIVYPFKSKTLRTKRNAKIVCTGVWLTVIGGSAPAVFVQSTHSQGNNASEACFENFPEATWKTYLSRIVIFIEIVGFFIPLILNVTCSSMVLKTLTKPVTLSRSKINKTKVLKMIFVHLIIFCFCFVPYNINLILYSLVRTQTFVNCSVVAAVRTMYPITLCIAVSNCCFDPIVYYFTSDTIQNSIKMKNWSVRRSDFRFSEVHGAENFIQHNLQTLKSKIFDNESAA
Method: as §1, with “293A” for “Figure 4 Agonistic activity of 2-carba-lysophosphatidic acid (2carbaLPA) and cyclic phosphatidic acid (cPA) analogues toward six lysophosphatidic acid (LPA) receptors. 293A”
as §2, with “To improve signal detection, cells for the analysis of LPA1, LPA2, LPA4, and LPA5 were transfected with Gα-chimeric proteins, whereas those for LPA4, LPA5, LPA6 analysis were treated with the LPA1–3 antagonist Ki16425.” left out

| SMILES | EC50 (hLPA1) | Emax (hLPA1) | EC50 (hLPA2) | Emax (hLPA2) | EC50 (hLPA4) | Emax (hLPA4) | EC50 (hLPA6; with Ki16425 10 μM) | Emax (hLPA6) | EC50 (hLPA2; bound) | EC50 (hLPA6; bound) |
| --- | --- | --- | --- | --- | --- | --- | --- | --- | --- | --- |
| CCCCCCCC/C=C\CCCCCCCC(=O)OCC(CO)CP(=O)(O)O (stereo not drawn) [2carbaLPA 18:1, 2-carba-lysophosphatidic acid] | 54.8 nM | 27% | 256 nM | 35.8% | 1 nM | 24.9% | 90.9 nM | 29.3% |  |  |
| CCCCCCCC/C=C\CCCCCCCC(=O)OCC1COP(=O)(O)C1 (stereo not drawn) [2ccPA 18:1, 2-carba-cyclic phosphatidic acid] | 997 nM | 20.6% |  |  | 71.9 nM | 19.6% |  |  | > 3000 nM | > 3000 nM |
| CCCCCCCC/C=C\CCCCCCCC(=O)OC[C@@H](O)CCP(=O)(O)O [3carba LPA 18:1, 3-carba-lysophosphatidic acid] | 11 nM | 26.9% | 28.3 nM | 30.7% | 1.9 nM | 23.5% | 132 nM | 27.1% |  |  |
| CCCCCCCC/C=C\CCCCCCCC(=O)OC[C@@H]1CCP(=O)(O)O1 [3ccPA 18:1, 3-carba-cyclic phosphatidic acid] | 370 nM | 26.9% | 2600 nM | 53.2% | 92.3 nM | 23.3% |  |  |  | > 3000 nM |
| CCCCCCCC/C=C\CCCCCCCC(=O)OC[C@@H]1COP(=O)(O)O1 [cPA 18:1, 1-Oleoyl-cPA] | 460 nM | 24.1% | 1070 nM | 35.9% | 32.8 nM | 17.2% |  |  |  | > 3000 nM |
